Measured values: patent publication US12570659B2, “Bicyclic heteroaryl compounds useful as IRAK4 inhibitors” (BRISTOL-MYERS SQUIBB COMPANY, priority 2019, dated 2026)

Assays:
[1] = tested on: TLR2 agonist-stimulated IL-6 in human whole blood; experiment: IRAK4 Whole Blood Assay; type: cell-based; details: lipoteichoic acid 10 μg/mL, 5 hours, IL-6 levels
Experimental: Human whole blood containing the anti-coagulant ACD-A was plated in 384-well plate (25 μL/well) and incubated with compounds for 60 minutes at 37° C. in a 5% CO2 incubator. The blood was stimulated with a TLR2 agonist, 10 μg/mL final concentration of lipoteichoic acid (Invivogen, San Diego, CA) in 25 μL RPMI (Gibco) for 5 hours in a 5% CO2 incubator. At the end of the incubation, plates were centrifuged at 2300 rpm for 5 minutes. Supernatants were harvested and analyzed for IL-6 levels by Flow Cytometry beads assay (BD Biosciences, San Jose, CA).

[2] = target: IRAK4 (Homo sapiens (Human), UniProt Q9NWZ3); experiment: IRAK4 Inhibition Assay; type: biochemical; details: ATP 500 μM; IRAK4 0.6 nM; 60 min room temperature
IRAK4, sequence (Q9NWZ3 whole entry, species assumed): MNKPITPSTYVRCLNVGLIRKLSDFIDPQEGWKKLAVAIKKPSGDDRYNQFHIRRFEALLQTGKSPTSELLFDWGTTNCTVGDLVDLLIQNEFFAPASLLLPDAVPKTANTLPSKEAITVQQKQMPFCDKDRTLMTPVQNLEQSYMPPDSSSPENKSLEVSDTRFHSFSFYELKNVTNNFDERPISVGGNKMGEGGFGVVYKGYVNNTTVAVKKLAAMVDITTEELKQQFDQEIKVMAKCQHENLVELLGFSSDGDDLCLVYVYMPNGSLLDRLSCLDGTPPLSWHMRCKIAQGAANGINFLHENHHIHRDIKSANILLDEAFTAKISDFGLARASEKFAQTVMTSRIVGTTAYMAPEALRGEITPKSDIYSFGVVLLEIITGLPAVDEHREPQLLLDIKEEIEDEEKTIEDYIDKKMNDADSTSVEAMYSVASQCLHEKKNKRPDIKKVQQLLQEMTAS
Summary of the method: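 Reaction started by combining IRAK4 with substrates and compound, run 60 min at room temperature and stopped with 35 mM EDTA. Fluorescent substrate and phosphorylated product were separated electrophoretically on a Caliper LabChip; inhibition normalized to no-enzyme (100%) and vehicle-only (0%) controls.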

[3] = target: JAK3 kinase (Homo sapiens (Human), UniProt P52333); experiment: JAK3 Homogeneous Time Resolved Fluorescence (HTRF) Assay; type: binding; details: for IC50: competition binding with fluorescein-labeled ATP competitive probe; for Ratio of JAK3 IC50 to IRAK4 IC50: selectivity for IRAK4 over JAK3
JAK3 kinase, sequence (P52333 whole entry): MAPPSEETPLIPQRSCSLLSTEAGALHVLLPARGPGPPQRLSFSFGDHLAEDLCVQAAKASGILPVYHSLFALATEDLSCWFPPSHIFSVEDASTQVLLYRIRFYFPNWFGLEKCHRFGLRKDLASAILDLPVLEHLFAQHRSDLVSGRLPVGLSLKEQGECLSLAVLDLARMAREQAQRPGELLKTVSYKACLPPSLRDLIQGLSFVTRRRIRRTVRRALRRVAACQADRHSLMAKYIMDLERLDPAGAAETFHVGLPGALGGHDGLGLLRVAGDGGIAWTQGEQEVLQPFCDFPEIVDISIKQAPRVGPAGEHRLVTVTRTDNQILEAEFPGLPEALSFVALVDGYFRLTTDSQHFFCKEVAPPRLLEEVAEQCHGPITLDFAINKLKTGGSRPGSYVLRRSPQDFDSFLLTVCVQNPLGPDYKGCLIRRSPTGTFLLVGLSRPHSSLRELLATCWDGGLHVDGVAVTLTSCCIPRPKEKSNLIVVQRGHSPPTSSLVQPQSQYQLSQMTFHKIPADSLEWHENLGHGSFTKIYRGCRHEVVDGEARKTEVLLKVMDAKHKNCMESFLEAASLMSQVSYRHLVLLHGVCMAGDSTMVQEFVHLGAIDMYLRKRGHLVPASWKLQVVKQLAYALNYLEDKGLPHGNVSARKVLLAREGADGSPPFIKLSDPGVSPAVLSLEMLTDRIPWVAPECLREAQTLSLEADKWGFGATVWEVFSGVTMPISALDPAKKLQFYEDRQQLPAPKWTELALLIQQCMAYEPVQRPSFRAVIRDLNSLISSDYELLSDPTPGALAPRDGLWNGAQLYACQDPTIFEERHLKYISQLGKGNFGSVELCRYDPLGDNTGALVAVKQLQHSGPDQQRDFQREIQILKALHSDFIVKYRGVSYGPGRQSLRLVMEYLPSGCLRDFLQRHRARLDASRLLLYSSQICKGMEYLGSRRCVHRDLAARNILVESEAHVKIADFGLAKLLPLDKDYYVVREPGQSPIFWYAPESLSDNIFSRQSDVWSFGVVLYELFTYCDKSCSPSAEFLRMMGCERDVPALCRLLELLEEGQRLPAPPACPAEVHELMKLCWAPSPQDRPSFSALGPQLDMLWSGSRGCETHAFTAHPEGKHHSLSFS
Summary of the method: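 TR-FRET competition binding: 1 nM His- or GST-tagged JAK3 with 0.2 nM Tb-labeled anti-tag antibody, fluorescein ATP-competitive probe at its Kd, and compound for one hour. FRET read at 495/520 nm, normalized to no-compound signal. IC50 from 11 concentrations, 4-parameter logistic fit.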

SMILES | IC50 [1] | IC50 [2] | IC50 [3] | Ratio of JAK3 IC50 to IRAK4 IC50 [3]
CC(C)Nc1c(C(=O)NCCN2CCOCC2)cnn2cc(-c3ccncc3F)cc12 [Example 71, 6-(3-fluoropyridin-4-yl)-4-(isopropylamino)-N-(2-morpholinoethyl)pyrrolo[1,2-b]pyridazine-3-carboxamide] | > 10000 nM | 7.2 nM | 7000 nM | 972
CC(=O)N[C@H]1CC[C@H](NC(=O)c2cnn3cc(-c4ccc(CO)nc4)cc3c2NC(C)C)CC1 [Example 73, N-((1r,4r)-4-acetamidocyclohexyl)-6-(6-(hydroxymethyl)pyridin-3-yl)-4-(isopropylamino)pyrrolo[1,2-b]pyridazine-3-carboxamide] | 650 nM | 3.1 nM | > 50000 nM | >16129
CC(=O)N[C@H]1CC[C@H](NC(=O)c2cnn3c(Cl)c(-c4ccncc4)cc3c2NC(C)C)CC1 [Example 80, N-((1r,4r)-4-acetamidocyclohexyl)-7-chloro-4-(isopropylamino)-6-(pyridin-4-yl)pyrrolo[1,2-b]pyridazine-3-carboxamide] | 720 nM | 2 nM | ~35000 nM | ~17500
CC(=O)N[C@H]1CC[C@H](NC(=O)c2cnn3cc(-c4ccc(C#N)cc4)cc3c2NC(C)C)CC1 [Example 81, N-((1r,4r)-4-acetamidocyclohexyl)-6-(4-cyanophenyl)-4-(isopropylamino)pyrrolo[1,2-b]pyridazine-3-carboxamide] | > 20000 nM | 12 nM | > 50000 nM | >4167
CC(C)Nc1c(C(=O)N[C@H]2CC[C@H](C(=O)N3CCOCC3)CC2)cnn2cc(-c3ccncc3F)cc12 [Example 84, 6-(3-fluoropyridin-4-yl)-4-(isopropylamino)-N-((1r,4r)-4-(morpholine-4-carbonyl)cyclohexyl)pyrrolo[1,2-b]pyridazine-3-carboxamide] | 1040 nM | 2.7 nM | > 50000 nM | >18519
CC(C)Nc1c(C(=O)NC2CCN(S(C)(=O)=O)CC2)cnn2cc(-c3ccc(F)nc3)cc12 [Example 85, 6-(6-fluoropyridin-3-yl)-4-(isopropylamino)-N-(1-(methylsulfonyl)piperidin-4-yl)pyrrolo[1,2-b]pyridazine-3-carboxamide] | 870 nM | 2.5 nM | ~31000 nM | ~12400
CNC(=O)[C@H]1CC[C@H](NC(=O)c2cnn3cc(-c4ccncc4F)cc3c2NC(C)C)CC1 [Example 87, 6-(3-fluoropyridin-4-yl)-4-(isopropylamino)-N-((1r,4r)-4-(methylcarbamoyl)cyclohexyl) pyrrolo[1,2-b]pyridazine-3-carboxamide] | 260 nM | 3.1 nM | > 50000 nM | >16129
Cc1cc(F)ncc1-c1cc2c(NC(C)C)c(C(=O)N[C@H]3CC[C@H](C(N)=O)CC3)cnn2c1 [Example 88, N-((1r,4r)-4-carbamoylcyclohexyl)-6-(6-fluoro-4-methylpyridin-3-yl)-4-(isopropylamino)pyrrolo[1,2-b]pyridazine-3-carboxamide] | > 10000 nM | 7.6 nM | > 50000 nM | >6579
CC(C)Nc1c(C(=O)N[C@H]2CC[C@H](C(N)=O)CC2)cnn2cc(-c3ccncc3F)cc12 [Example 89, N-((1r,4r)-4-carbamoylcyclohexyl)-6-(3-fluoropyridin-4-yl)-4-(isopropylamino) pyrrolo[1,2-b]pyridazine-3-carboxamide] | 1360 nM | 3.8 nM | > 50000 nM | >13158
CC(C)Nc1c(C(=O)N[C@H]2CC[C@H](c3nc[nH]n3)CC2)cnn2cc(-c3ccncc3)cc12 [Example 90, N-((1r,4r)-4-(1H-1,2,4-triazol-3-yl)cyclohexyl)-4-(isopropylamino)-6-(pyridin-4-yl)pyrrolo[1,2-b]pyridazine-3-carboxamide] | 630 nM | 3.7 nM | 10000 nM | 2703
Cc1cc(F)ncc1-c1cc2c(NC(C)C)c(C(=O)N[C@H]3CC[C@H](c4nc[nH]n4)CC3)cnn2c1 [Example 91, N-((1r,4r)-4-(1H-1,2,4-triazol-3-yl)cyclohexyl)-6-(6-fluoro-4-methylpyridin-3-yl)-4-(isopropylamino)pyrrolo[1,2-b]pyridazine-3-carboxamide] | 1460 nM | 5.2 nM | > 50000 nM | >9615
CC(C)Nc1c(C(=O)N[C@H]2CC[C@H](c3nc[nH]n3)CC2)cnn2cc(-c3ccc(F)nc3)cc12 [Example 92, N-((1r,4r)-4-(1H-1,2,4-triazol-3-yl)cyclohexyl)-6-(6-fluoropyridin-3-yl)-4-(isopropylamino)pyrrolo[1,2-b]pyridazine-3-carboxamide] | 6970 nM | 10 nM | > 50000 nM | >5000
CC(C)Nc1c(C(=O)N[C@H]2CC[C@H](c3nc[nH]n3)CC2)cnn2cc(-c3ccncc3F)cc12 [Example 93, N-((1r,4r)-4-(1H-1,2,4-triazol-3-yl)cyclohexyl)-6-(3-fluoropyridin-4-yl)-4-(isopropylamino)pyrrolo[1,2-b]pyridazine-3-carboxamide] | 1040 nM | 2.3 nM | > 50000 nM | >21739
CC(=O)N[C@H]1CC[C@H](NC(=O)c2cnn3cc(-c4ccncc4)nc3c2NC(C)C)CC1 [Example 108, N-((1r,4r)-4-acetamidocyclohexyl)-8-(isopropylamino)-2-(pyridin-4-yl)imidazo[1,2-b]pyridazine-7-carboxamide] | 890 nM | 11 nM | ~49000 nM | ~4455
CC(C)Nc1c(C(=O)NCCC(C)(C)O)cnn2cc(-c3ccncc3F)nc12 [Example 109, 2-(3-fluoropyridin-4-yl)-N-(3-hydroxy-3-methylbutyl)-8-(isopropylamino)imidazo[1,2-b]pyridazine-7-carboxamide] | > 20000 nM | 12 nM | > 50000 nM | >4167
CC(C)Nc1c(C(=O)NC2CCN(S(C)(=O)=O)CC2)cnn2cc(-c3ccncc3F)nc12 [Example 111, 2-(3-fluoropyridin-4-yl)-8-(isopropylamino)-N-(1-(methylsulfonyl)piperidin-4-yl)imidazo[1,2-b]pyridazine-7-carboxamide] | 3730 nM | 13 nM | > 50000 nM | >3846
